Results taken from patent US8796307B2, “Beta2-adrenoreceptor agonists” (Novartis AG, priority 1999, dated 2014).
Counter-ions that a name gives are not always drawn. Like-named read-outs stand apart in the source and are kept apart here.

Key:
[1] = target: β2-adrenoreceptor (Homo sapiens, UniProt P07550); test: cAMP determination in cells expressing β2-adrenoreceptor; assay type: cell-based; conditions: read-out: EC50 (β2), binding potency measured by cAMP determination
Source text: (§1) Accordingly the invention also provides a compound of formula I in free, salt or solvate form for use as a pharmaceutical. […] The β2 agonist activity, onset of action and duration of action of the agents of the invention may be tested using the guinea pig tracheal stip in vitro assay according to the procedure of R. A. Coleman and A. T. Nials, J. Pharmacol. Methods (1989), 21(1), 71-86. The binding potency and selectivity for the β2-adrenoreceptor relative to the β1-adrenoreceptor can be measured by a classical filtration binding assay according to the procedure of Current Protocols in Pharmacology (S. J. Enna (editor-in-chief) et al, John Wiley & Son, Inc, 1998), or by cAMP determination in cells expressing β2- or β1-adrenoceptor, according to the procedure of B. January et al, British J. Pharmacol. 123: 701-711 (1998).

[2] = target: β1-adrenoreceptor (Homo sapiens, UniProt P08588); test: cAMP determination in cells expressing β1-adrenoreceptor; assay type: cell-based
Source text: as §1

[3] = system: guinea pig tracheal strip; test: guinea pig tracheal strip in vitro assay
Source text: as §1

[4] = cells expressing β1-adrenoreceptor, read-out: EC50 (β1), binding potency measured by cAMP determination

Chain of β2-adrenoreceptor (P07550 whole entry, species assumed): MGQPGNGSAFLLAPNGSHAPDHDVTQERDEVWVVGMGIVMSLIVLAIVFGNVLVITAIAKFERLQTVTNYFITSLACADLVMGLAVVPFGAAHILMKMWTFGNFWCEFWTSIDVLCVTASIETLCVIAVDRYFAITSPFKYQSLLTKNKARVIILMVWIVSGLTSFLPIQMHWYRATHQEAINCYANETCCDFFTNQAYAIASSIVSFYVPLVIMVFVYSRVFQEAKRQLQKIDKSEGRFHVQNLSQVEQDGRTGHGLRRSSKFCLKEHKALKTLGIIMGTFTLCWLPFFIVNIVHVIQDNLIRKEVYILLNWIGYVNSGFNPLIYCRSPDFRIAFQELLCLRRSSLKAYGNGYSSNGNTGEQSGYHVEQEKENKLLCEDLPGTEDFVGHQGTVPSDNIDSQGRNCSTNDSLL
Chain of β1-adrenoreceptor (P08588 whole entry, species assumed): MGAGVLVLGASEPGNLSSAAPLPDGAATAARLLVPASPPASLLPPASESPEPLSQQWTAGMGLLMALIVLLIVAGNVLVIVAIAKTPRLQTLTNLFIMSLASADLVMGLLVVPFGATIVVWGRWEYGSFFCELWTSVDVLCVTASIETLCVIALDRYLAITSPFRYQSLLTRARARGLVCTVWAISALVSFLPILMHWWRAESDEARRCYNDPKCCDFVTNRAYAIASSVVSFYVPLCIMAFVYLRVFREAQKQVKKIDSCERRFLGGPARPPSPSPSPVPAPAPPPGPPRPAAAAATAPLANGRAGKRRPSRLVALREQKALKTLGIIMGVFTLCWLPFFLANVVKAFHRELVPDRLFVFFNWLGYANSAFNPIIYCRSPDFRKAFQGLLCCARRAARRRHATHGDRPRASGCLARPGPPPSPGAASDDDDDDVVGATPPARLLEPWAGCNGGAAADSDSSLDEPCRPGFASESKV

COc1ccc(OC)c2c1CC(NC[C@H](O)c1ccc(O)c3[nH]c(=O)ccc13)C2 [Example 1, (R)-8-hydroxy-5-[2-(4,7-Dimethoxy-indan-2-ylamino)-1-hydroxy-ethyl]-1H-quinolin-2-one hydrochloride]
EC50 [1]: 0.92 nM
EC50 [2, 4]: 9.52 nM

CCc1cc2c(cc1CC)CC(NCC(O)c1ccc(O)c3[nH]c(=O)ccc13)C2 (stereo not shown) [Example 2, 8-hydroxy-5-[2-(5,6-diethyl-indan-2-ylamino)-1-hydroxy-ethyl]-1H-quinolin-2-one]
EC50 [1]: 0.23 nM
EC50 [2]: 1.25 nM
T(50%), time for inhibition of contraction to decay to 50% of its maximum value ([3]; at 71 nM concentration): > 400 min

CCc1ccc(CC)c2c1CC(NC[C@H](O)c1ccc(O)c3[nH]c(=O)ccc13)C2 [Example 4]
EC50 [1]: 6.07 nM
EC50 [2, 4]: 14.5 nM
T(50%), time for inhibition of contraction to decay to 50% of its maximum value ([3]; at 100 nM): 82 min

O=c1ccc2c([C@@H](O)CNC3Cc4cc5c(cc4C3)CCCC5)ccc(O)c2[nH]1 [Example 5]
EC50 [1]: 0.79 nM
EC50 [2, 4]: 6.1 nM
T(50%), time for inhibition of contraction to decay to 50% of its maximum value ([3]; at 100 nM): 444 min

O=c1ccc2c([C@@H](O)CNC3Cc4cc5c(cc4C3)OCCO5)ccc(O)c2[nH]1 [Example 6]
EC50 [1]: 0.3 nM
EC50 [2, 4]: 3.6 nM

CCCc1cc2c(cc1CCC)CC(NC[C@H](O)c1ccc(O)c3[nH]c(=O)ccc13)C2 [Example 8]
EC50 [1]: 0.57 nM
EC50 [2, 4]: 8.46 nM

CC1(NC[C@H](O)c2ccc(O)c3[nH]c(=O)ccc23)Cc2ccccc2C1 [Example 27, 8-Hydroxy-5-[(R)-1-hydroxy-2-(2-methyl-indan-2-ylamino)-ethyl]-1H-quinolin-2-one]
EC50 [1]: 0.012 nM
EC50 [2, 4]: 0.5 nM
T(50%), time for inhibition of contraction to decay to 50% of its maximum value ([3]; at 1.0 nM): 222 min

CC1(NC[C@H](O)c2ccc(O)c3[nH]c(=O)ccc23)Cc2cc3c(cc2C1)CCCC3 [Example 29, 8-Hydroxy-5-[(R)-1-hydroxy-2-(2-methyl-2,3,5,6,7,8-hexahydro-1H-cyclopenta[b]naphthalen-2-ylamino)-ethyl]-1H-quinolin-2-one]
T(50%), time for inhibition of contraction to decay to 50% of its maximum value ([3]; at 10 nM): 279 min
